Assay results from paper PMC11747885, “Potent inhibitors of the human RNA ligase Rlig1 highlights its role in RNA integrity maintenance under oxidative cellular stress” (Chemical Science, 2025).
Where “and” joins values, the source holds several entries; their conditions need not be identical. Identical values can stand only once. Like-named read-outs stand apart in the source and are kept apart here.

Experiments:
Rlig1-AMP = molecular target: T1, Rlig1-AMP (Homo sapiens, UniProt Q8N999); assay: FRET-based high-throughput screening of inhibitors for Rlig1-AMP; assay type: biochemical; settings: HTS hits; for Raw data [w Enyzm]: with enzyme; for Raw data [w/o Enzym]: without enzyme
T1 construct: made in house; host or cells: E. coli BL21 (DE3), pET15b-Rlig1
T1 sequence (Q8N999 whole entry): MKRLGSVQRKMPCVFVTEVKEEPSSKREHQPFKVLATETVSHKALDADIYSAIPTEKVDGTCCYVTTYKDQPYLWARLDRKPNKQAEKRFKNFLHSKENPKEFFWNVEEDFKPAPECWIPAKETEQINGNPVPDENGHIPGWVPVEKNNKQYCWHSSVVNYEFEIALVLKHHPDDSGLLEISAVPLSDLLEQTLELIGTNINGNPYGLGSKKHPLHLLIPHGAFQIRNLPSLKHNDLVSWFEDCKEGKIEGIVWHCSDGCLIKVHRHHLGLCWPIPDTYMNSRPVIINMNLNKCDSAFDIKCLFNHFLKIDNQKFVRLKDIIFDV

[1] = system: other members of the PLK family; parameters: method as in MedChemExpress; settings: ref MedChemExpress; cited from earlier work
Aurora A = system: Aurora A; parameters: method as in MedChemExpress; settings: ref MedChemExpress; cited from earlier work
Aurora B = system: Aurora B; parameters: method as in MedChemExpress; settings: ref MedChemExpress; cited from earlier work
KDR = system: KDR; parameters: method as in MedChemExpress; settings: ref MedChemExpress; cited from earlier work
FLT-3 = system: FLT-3; parameters: method as in MedChemExpress; settings: ref MedChemExpress; cited from earlier work
ETB receptor = molecular target: ETB receptor; parameters: method as in MedChemExpress; settings: inhibition of ET-1 binding to human Girardi heart cells (ETB); ref MedChemExpress; cited from earlier work
ETA receptors = molecular target: ETA receptors; parameters: method as in MedChemExpress; settings: binding to ETA receptors in SK-N-MC cells; ref MedChemExpress; cited from earlier work
rat brain PKC = system: rat brain PKC; parameters: method as in MedChemExpress; settings: ref MedChemExpress; cited from earlier work
PKC-α = system: PKC-α; parameters: method as in MedChemExpress; settings: ref MedChemExpress; cited from earlier work
PKC-βI = system: PKC-βI; parameters: method as in MedChemExpress; settings: ref MedChemExpress; cited from earlier work
PKC-βII = system: PKC-βII; parameters: method as in MedChemExpress; settings: ref MedChemExpress; cited from earlier work
PKC-γ = system: PKC-γ; parameters: method as in MedChemExpress; settings: ref MedChemExpress; cited from earlier work
PKC-ε = system: PKC-ε; parameters: method as in MedChemExpress; settings: ref MedChemExpress; cited from earlier work
Pim-1 = system: Pim-1; parameters: method as in MedChemExpress; settings: ref MedChemExpress; cited from earlier work
Pim-2 = system: Pim-2; parameters: method as in MedChemExpress; settings: ref MedChemExpress; cited from earlier work
Pim-3 = system: Pim-3; parameters: method as in MedChemExpress; settings: ref MedChemExpress; cited from earlier work
[2] = molecular target: human DNA topoisomerase I; parameters: method as in MedChemExpress; settings: ref MedChemExpress; cited from earlier work
NLRP3 inflammasome = system: NLRP3 inflammasome; parameters: method as in MedChemExpress; settings: ref MedChemExpress; cited from earlier work
wild-type h5-HT1B = molecular target: wild-type h5-HT1B; parameters: method as in MedChemExpress; settings: ref MedChemExpress; cited from earlier work
wild-type h5-HT1D = molecular target: wild-type h5-HT1D; parameters: method as in MedChemExpress; settings: ref MedChemExpress; cited from earlier work
[3] = DMSO; ref MedChemExpress; cited from earlier work
JNK1 = system: JNK1; parameters: method as in MedChemExpress; settings: ref MedChemExpress; cited from earlier work
JNK2 = system: JNK2; parameters: method as in MedChemExpress; settings: ref MedChemExpress; cited from earlier work
JNK3 = system: JNK3; parameters: method as in MedChemExpress; settings: ref MedChemExpress; cited from earlier work
CXXC5-DVL = system: CXXC5-DVL; parameters: method as in MedChemExpress; settings: ref MedChemExpress; cited from earlier work
GSK3β = system: GSK3β; parameters: method as in MedChemExpress; settings: ref MedChemExpress; cited from earlier work
[4] = DMSO; ref MedChemExpress; cited from earlier work; remark: listed apart in the source
MAGL = system: MAGL; parameters: method as in MedChemExpress; settings: ref MedChemExpress; cited from earlier work
[5] = system: human p53 and CREB binding protein association; parameters: method as in MedChemExpress; settings: at 50 μM; ref MedChemExpress; cited from earlier work
CDK7 = molecular target: CDK7; parameters: method as in MedChemExpress; settings: ref MedChemExpress; cited from earlier work
DNA synthesis = system: DNA synthesis; parameters: method as in MedChemExpress; settings: ref MedChemExpress; cited from earlier work
RNA synthesis = system: RNA synthesis; parameters: method as in MedChemExpress; settings: ref MedChemExpress; cited from earlier work
Syk = system: Syk; parameters: method as in MedChemExpress; settings: ref MedChemExpress; cited from earlier work
PI3Kα = system: PI3Kα; parameters: method as in MedChemExpress; settings: ref MedChemExpress; cited from earlier work
HIV-1IIIB = system: HIV-1IIIB; parameters: method as in MedChemExpress; settings: ref MedChemExpress; cited from earlier work
HIV-1(74V) = system: HIV-1(74V); parameters: method as in MedChemExpress; settings: ref MedChemExpress; cited from earlier work
HIV-1KM018 = system: HIV-1KM018; parameters: method as in MedChemExpress; settings: ref MedChemExpress; cited from earlier work
TMEM16A chloride channel = system: TMEM16A chloride channel; parameters: method as in MedChemExpress; settings: ref MedChemExpress; cited from earlier work
SirT2 = system: SirT2; parameters: method as in MedChemExpress; settings: ref MedChemExpress; cited from earlier work
SirT5 = system: SirT5; parameters: method as in MedChemExpress; settings: ref MedChemExpress; cited from earlier work
DNA topoisomerase II = molecular target: DNA topoisomerase II; parameters: method as in MedChemExpress; settings: ref MedChemExpress; cited from earlier work
hERG channel = system: hERG channel; parameters: method as in MedChemExpress; settings: ref MedChemExpress; cited from earlier work
[6] = difference of raw data without and with enzyme
[7] = difference of raw data w/o and w enzyme

| Compound | 1-D Distance.npi (Rlig1-AMP; MedChemExpress library) | 1-D Distance (Rlig1-AMP; [6]) | Raw data [w Enyzm] (Rlig1-AMP) | Raw data [w/o Enzym] (Rlig1-AMP) | other results |
| --- | --- | --- | --- | --- | --- |
| COc1ccc2[nH]c(O)c(C=c3ccc4c(c3)N=NC=4/C=C/c3ccc(N4CCN(C)CC4)nc3)c2c1.Cl.Cl [(1E)-CFI-400437 (dihydrochloride)] | 102.026 | 187 | 4069 | 3882 | IC50 [1]: > 10000 nM; IC50 (Aurora A): 370 nM; IC50 (Aurora B): 210 nM; IC50 (KDR): 480 nM; IC50 (FLT-3): 180 nM |
| CCCC[C@@H](NC(=O)[C@@H](Cc1cn(C(=O)OC)c2ccccc12)NC(=O)[C@H](CC(C)(C)C)NC(=O)N1[C@H](C)CCC[C@@H]1C)C(=O)[O-].[Na+] [BQ-788] | 75.2571 | 1704 | 8619 | 10323 | IC50 (ETB receptor): 1.2 nM; IC50 (ETA receptors): 1300 nM |
| CC(=O)O.Cn1cc(C2=C(c3cn(CCCN)c4ccccc34)C(=O)NC2=O)c2ccccc21 [Bisindolylmaleimide VIII (acetate)] | 70.0569 | 1909 | 2831 | 4740 | IC50 (rat brain PKC): 158 nM; IC50 (PKC-α): 53 nM; IC50 (PKC-βI): 195 nM; IC50 (PKC-βII): 163 nM; IC50 (PKC-γ): 213 nM; IC50 (PKC-ε): 175 nM |
| CN1CCCN(C(=O)c2cccc(-c3ccc(/C=C4/C(=O)Nc5ccc(Cl)cc54)o3)c2)CC1.Cl [CX-6258 (hydrochloride)] | 75.5915 | 1601 | […] | 6590 | IC50 (Pim-1): […]; IC50 (Pim-2): 25 nM; IC50 (Pim-3): 16 nM |
| COc1cccc2c1C(=O)c1c(O)c3c(c(O)c1C2=O)C[C@@](O)(C(=O)CO)C[C@@H]3O[C@H]1C[C@H](N)[C@H](O)[C@H](C)O1.Cl [Doxorubicin (hydrochloride)] | 103.376 | 134 | 1247 | – | IC50 [2]: 800 nM |
| CC(C)n1ccc(S(=O)(=O)NC(=O)Nc2c3c(cc4c2CCC4)CCC3)n1 [Emlenoflast (sodium)] | 80.6711 | 1207 | 9218 | 10425 | IC50 (NLRP3 inflammasome): < 100 nM |
| COc1ccc(NC(=O)c2ccc(-c3ccncc3)c(C)c2)cc1N1CCN(C)CC1 [GR 125743] | – | – | 8833 | 10262 | 1-D Distance (Rlig1-AMP; [7]): 1429; pKi (wild-type h5-HT1B): 8.85; pKi (wild-type h5-HT1D): 8.31; solubility [3]: 100 mg/mL and 240.08 mM |
| O=C1Nc2ccccc2/C1=C1/Nc2ccccc2/C1=N\O [Indirubin-3′-oxime] | 72.577 | 1766 | 1847 | 3613 | IC50 (JNK1): 800 nM; IC50 (JNK2): 1400 nM; IC50 (JNK3): 1000 nM |
| CON=C1C(=C2C(=O)Nc3cc(Cl)c(Cl)cc32)Nc2ccccc21 [KY19382] | 101.229 | 138 | 6054 | 6192 | IC50 (CXXC5-DVL): 19 nM; IC50 (GSK3β): 10 nM; solubility [4]: 5 mg/mL and 13.88 mM |
| CC(C)c1ccc(C(=O)C2CCN(C(=O)c3cc(O)ccc3F)CC2)cc1 [MAGL-IN-1] | 70.8371 | 1819 | 9200 | 11019 | IC50 (MAGL): 80 nM |
| CC(=O)n1c2c(c3ccccc31)CCCC2=O [MS7972] | – | – | 8943 | 10149 | 1-D Distance (Rlig1-AMP; [7]): 1206; 1-D Distance.npi (Rlig1-AMP; normalized value (npi)): 81.4632; block of BRD interaction [5]: MS7972 is a small molecule that blocks human p53 and CREB binding protein association. MS7972 can almost completely block this BRD interaction at 50 μM[1]. |
| CN(C)C/C=C/C(=O)Nc1ccc(C(=O)N[C@@]2(C)CCC[C@@H](Nc3ncc(Cl)c(-c4c[nH]c5ccccc45)n3)C2)nc1 [Mevociclib] | 95.3899 | 561 | 5749 | 5188 | Ki (CDK7): 17.4 nM |
| CCc1c2c(nc3ccc(O)cc13)-c1cc3c(c(=O)n1C2)COC(=O)[C@]3(O)CC [SN-38] | 72.669 | 1812 | 9411 | 11223 | IC50 (DNA synthesis): 77 nM; IC50 (RNA synthesis): 1300 nM; solubility [4]: 50 mg/mL and 127.42 mM |
| Cc1nn(-c2ccnc(Nc3ccc(-c4csc5c(=O)cc(N6CCOCC6)oc45)cc3)n2)cc1CN1CCC1 [SRX3207] | 89.3143 | 966 | 7329 | 6363 | IC50 (Syk): 10.7 nM; IC50 (PI3Kα): 861 nM; solubility [4]: 5 mg/mL and 9.00 mM |
| O=C(O)[C@H]1O[C@@H](Oc2cc3oc(-c4ccc(O)cc4)cc(=O)c3c(O)c2O)[C@H](O)[C@@H](O)[C@@H]1O [Scutellarin] | – | 1804 | 9318 | 11122 | EC50 (HIV-1IIIB): 26000 nM; EC50 (HIV-1(74V)): 253000 nM; EC50 (HIV-1KM018): 136000 nM; solubility [4]: 100 mg/mL and 216.28 mM |
| CC(C)=CC[C@@H](O)C1=CC(=O)c2c(O)ccc(O)c2C1=O [Shikonin] | – | 1574 | 3611 | – | IC50 (TMEM16A chloride channel): 6500 nM |
| Cc1ccc(C(=O)Nc2ccc(S(=O)(=O)[O-])c3cc(S(=O)(=O)[O-])cc(S(=O)(=O)[O-])c23)cc1NC(=O)c1cccc(NC(=O)Nc2cccc(C(=O)Nc3cc(C(=O)Nc4ccc(S(=O)(=O)[O-])c5cc(S(=O)(=O)[O-])cc(S(=O)(=O)[O-])c45)ccc3C)c2)c1.[Na+].[Na+].[Na+].[Na+].[Na+].[Na+] [Suramin (sodium salt)] | 85.8095 | 1150 | 13348 | 14498 | IC50 (SirT2): 1150 nM; IC50 (SirT5): 22000 nM; IC50 (DNA topoisomerase II): 5000 nM |
| Tannic acid | 92.4189 | 691 | 13343 | 14034 | IC50 (hERG channel): 3400 nM |
